Experiments:
CCK2 receptor = target: T1, CCK2 receptor (Homo sapiens, UniProt P32239); assay: CCK2 binding assay ([125I]-BH-CCK-8S displacement, HEKZFP membranes); details: membranes of doxycycline-induced HEKZFP cells, 20 pM [125I]-BH-CCK-8S, 60 min at 21±3° C.; for Ki: read-out: CCK2 pKi (converted)
T1 construct: analyzed for ZFP expression as well as CCK2R induction upon addition of doxycycline to the culture medium; endogenous in cells
T1 sequence (P32239 1-447): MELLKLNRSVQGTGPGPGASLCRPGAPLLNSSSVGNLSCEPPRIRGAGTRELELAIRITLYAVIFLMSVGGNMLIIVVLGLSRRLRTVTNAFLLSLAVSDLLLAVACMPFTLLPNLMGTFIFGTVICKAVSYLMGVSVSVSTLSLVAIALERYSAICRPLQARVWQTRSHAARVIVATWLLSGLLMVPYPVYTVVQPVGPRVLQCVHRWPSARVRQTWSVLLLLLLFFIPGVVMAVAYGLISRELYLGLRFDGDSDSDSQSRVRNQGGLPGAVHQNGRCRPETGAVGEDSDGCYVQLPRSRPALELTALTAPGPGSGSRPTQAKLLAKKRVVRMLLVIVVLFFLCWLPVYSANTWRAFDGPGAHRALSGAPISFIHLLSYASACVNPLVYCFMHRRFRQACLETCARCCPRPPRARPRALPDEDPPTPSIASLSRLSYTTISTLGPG

CCK-1 receptor = target: T2, CCK-1 receptor (Homo sapiens, UniProt P32238); assay: CCK1 binding assay ([125I]-BH-CCK-8S displacement, CHO-K1 membranes); details: membranes of CHO-K1 cells stably transfected with the CCK-1 receptor, 20 pM [125I]-BH-CCK-8S, 0.3 μM PD-134,308 present, 60 min at 21±3° C.; for Ki: read-out: CCK1 pKi (converted)
T2 construct: expressed in transfected cells; host or cells: CHO-K1
T2 sequence (P32238 1-428): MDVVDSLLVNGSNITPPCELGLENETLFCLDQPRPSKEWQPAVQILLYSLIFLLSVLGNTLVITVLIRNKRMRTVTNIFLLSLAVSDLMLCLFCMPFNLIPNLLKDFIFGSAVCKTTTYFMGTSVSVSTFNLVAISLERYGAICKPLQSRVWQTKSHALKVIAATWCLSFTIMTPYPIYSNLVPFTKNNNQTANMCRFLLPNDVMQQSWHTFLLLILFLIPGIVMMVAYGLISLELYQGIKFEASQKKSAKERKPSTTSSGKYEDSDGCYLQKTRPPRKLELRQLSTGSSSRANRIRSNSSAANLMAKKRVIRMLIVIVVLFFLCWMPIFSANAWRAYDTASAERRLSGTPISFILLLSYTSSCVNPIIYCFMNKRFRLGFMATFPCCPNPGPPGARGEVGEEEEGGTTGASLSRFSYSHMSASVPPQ
Outline: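 Membranes from CHO-K1 cells stably expressing CCK-1 incubated 1 h at 21±3° C with 20 pM [125I]-BH-CCK-8S in HEPES buffer pH 7.2 containing 0.3 μM PD-134,308 to block CCK-2. Bound radioactivity read by gamma counting after filtration. pKi derived via Cheng-Prusoff, with specific binding defined using 2-NAP.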

Ki (CCK2 receptor)	Ki (CCK-1 receptor)	CCK2 pKi (CCK2 receptor)	CCK1 pKi (CCK-1 receptor)	SMILES
7.94 µM	0.0631 µM			COC(=O)[C@@H](Cc1ccc(Cl)cc1)NC(=O)c1ccc(Cl)cc1NS(=O)(=O)c1ccc(F)cc1F [Example 69, (R)-2-[4-Chloro-2-(2,4-difluoro-benzenesulfonylamino)-benzoylamino]-3-(4-chloro-phenyl)-propionic acid methyl ester]
0.0316 µM	0.0631 µM			O=C(N[C@@H](Cc1ccc(Cl)c(I)c1)C(=O)O)c1ccc(I)cc1NS(=O)(=O)c1cccc2nsnc12 [Example 92, (S)-2-[2-(Benzo[1,2,5]thiadiazole-4-sulfonylamino)-4-iodo-benzoylamino]-3-(4-chloro-3-iodo-phenyl)-propionic acid]
0.0316 µM	0.316 µM			O=C(N[C@@H](Cc1ccc(Cl)cc1)C(=O)O)c1cc(Cl)c(Cl)cc1NS(=O)(=O)c1cccc2nsnc12 [Example 68, (S)-2-[2-(Benzo[1,2,5]thiadiazole-4-sulfonylamino)-4,5-dichloro-benzoylamino]-3-(4-chloro-phenyl)-propionic acid]
0.316 µM	0.126 µM			O=C(N[C@@H](Cc1ccc(Cl)c(Cl)c1)C(=O)N1CCCCC1)c1ccc(Cl)cc1NS(=O)(=O)c1cccc2nsnc12 [Example 140, (S)-2-(Benzo[1,2,5]thiadiazole-4-sulfonylamino)-4-chloro-N-[1-(3,4-dichloro-benzyl)-2-oxo-2-piperidin-1-yl-ethyl]-benzamide]
2 µM	0.794 µM			CC(CNC(=O)c1c(Cl)cccc1NS(=O)(=O)c1cccc2nsnc12)c1ccc(Cl)c(Cl)c1 (centres unmarked) [Example 81, 2-(Benzo[1,2,5]thiadiazole-4-sulfonylamino)-6-chloro-N-[2-(3,4-dichloro-phenyl)-propyl]-benzamide]
0.158 µM	1 µM			COC(=O)[C@H](Cc1ccc(F)c(Br)c1)NC(=O)c1ccc(Cl)cc1NS(=O)(=O)c1cccc2nccnc12 [Example 152, (S)-3-(3-Bromo-4-fluoro-phenyl)-2-[4-chloro-2-(quinoxaline-5-sulfonylamino)-benzoylamino]-propionic acid methyl ester]
0.316 µM	0.794 µM			Cc1ccc(C(=O)NCC(C)c2ccc(Cl)cc2)c(NS(=O)(=O)c2cccc3nsnc23)c1 (racemic) [Example 54, (±)-2-(Benzo[1,2,5]thiadiazole-4-sulfonylamino)-N-[2-(4-chloro-phenyl)-propyl]-4-methyl-benzamide]
0.126 µM	0.794 µM			COC(=O)[C@H](Cc1ccc(F)c(Br)c1)NC(=O)c1ccc(Br)cc1NS(=O)(=O)c1cccc2nccnc12 [Example 151, (S)-3-(3-Bromo-4-fluoro-phenyl)-2-[4-bromo-2-(quinoxaline-5-sulfonylamino)-benzoylamino]-propionic acid methyl ester]
0.0158 µM	0.251 µM			O=C(N[C@@H](Cc1ccc(Cl)c(Cl)c1)C(=O)O)c1ccc(I)cc1NS(=O)(=O)c1cccc2nccnc12 [Example 132, (S)-3-(3,4-Dichloro-phenyl)-2-[4-iodo-2-(quinoxaline-5-sulfonylamino)-benzoylamino]-propionic acid]
		7.9	6.9	O=C(N[C@@H](Cc1ccc(Cl)c(Br)c1)C(=O)O)c1ccc(Br)cc1NS(=O)(=O)c1cccc2nsnc12 [Example 161, (S)-2-[2-(Benzo[1,2,5]thiadiazole-4-sulfonylamino)-4-bromo-benzoylamino]-3-(3-bromo-4-chloro-phenyl)-propionic acid]
		6.8	6.3	C[C@H](c1ccc(Cl)c(Cl)c1)[C@H](NC(=O)c1ccc(Cl)cc1NS(=O)(=O)c1cccc2nsnc12)C(=O)O [Example 56, (2S,3R)-2-[2-(Benzo[1,2,5]thiadiazole-4-sulfonylamino)-4-chloro-benzoylamino]-3-(3,4-dichloro-phenyl)-butyric acid]
0.251 µM	1.58 µM			O=C(N[C@@H](Cc1ccc(Cl)cc1)C(=O)O)c1cc(Cl)ccc1NS(=O)(=O)c1cccc2nsnc12 [Example 83, (S)-2-[2-(Benzo[1,2,5]thiadiazole-4-sulfonylamino)-5-chloro-benzoylamino]-3-(4-chloro-phenyl)-propionic acid]

The remaining lines, values behind:

SMILES	Ki (CCK2 receptor)	Ki (CCK-1 receptor)	CCK2 pKi (CCK2 receptor)	CCK1 pKi (CCK-1 receptor)
CC(CNC(=O)c1ccc(Br)cc1NS(=O)(=O)c1cccc2nsnc12)c1ccccc1 (centres unmarked) [Example 31, 2-(Benzo[1,2,5]thiadiazole-4-sulfonylamino)-4-bromo-N-(2-phenyl-propyl)-benzamide]			6.2	7.1
O=C(N[C@@H](Cc1ccccc1)C(=O)O)c1cc(Cl)c(Cl)cc1NS(=O)(=O)c1cccc2nccnc12 [Example 29, 2-[4,5-Dichloro-2-(quinoxaline-5-sulfonylamino)-benzoylamino]-3-phenyl-propionic acid]	0.0794 µM	6.31 µM		
C[C@H](CNC(=O)c1ccc(Br)cc1NS(=O)(=O)c1cccc2nsnc12)c1ccccc1 [Example 35, (S)-2-(Benzo[1,2,5]thiadiazole-4-sulfonylamino)-4-bromo-N-(2-phenyl-propyl)-benzamide]			6.3	7.2
CC(CNC(=O)c1ccc(I)cc1NS(=O)(=O)c1c(F)cccc1F)c1ccc(Cl)cc1Cl (centres unmarked) [Example 47, N-[2-(2,4-Dichloro-phenyl)-propyl]-2-(2,6-difluoro-benzenesulfonylamino)-4-iodo-benzamide]	5.01 µM	0.1 µM		
C[C@@H](CNC(=O)c1ccc(Br)cc1NS(=O)(=O)c1c(F)cccc1F)c1ccccc1 [Example 38, (R)-4-Bromo-2-(2,6-difluoro-benzenesulfonylamino)-N-(2-phenyl-propyl)-benzamide]	2 µM	0.316 µM		
O=C(N[C@@H](Cc1ccc(Cl)cc1)C(=O)O)c1ccc(I)cc1NS(=O)(=O)c1c(F)cccc1F [Example 34, 3-(4-Chloro-phenyl)-2-[2-(2,6-difluoro-benzenesulfonylamino)-4-iodo-benzoylamino]-propionic acid]	0.1 µM	0.398 µM		
O=C(N[C@@H](Cc1ccc2ccccc2c1)C(=O)O)c1ccc(Cl)cc1NS(=O)(=O)c1cccc2nccnc12 [Example 9, (S)-2-[4-Chloro-2-(quinoxaline-5-sulfonylamino)-benzoylamino]-3-naphthalen-2-yl-propionic acid]	0.398 µM	0.158 µM		
NC(=O)[C@H](Cc1ccc(Cl)cc1)NC(=O)c1cc(Cl)c(Cl)cc1NS(=O)(=O)c1cccc2nsnc12 [Example 11, (S)-2-(Benzo[1,2,5]thiadiazole-4-sulfonylamino)-N-[1-carbamoyl-2-(4-chloro-phenyl)-ethyl]-4,5-dichloro-benzamide]	0.316 µM	0.398 µM		
CC(CNC(=O)c1ccc(Cl)cc1NS(=O)(=O)c1c(F)cccc1F)c1ccc([N+](=O)[O-])cc1 (centres unmarked) [Example 44, 4-Chloro-2-(2,6-difluoro-benzenesulfonylamino)-N-[2-(4-nitro-phenyl)-propyl]-benzamide]	3.98 µM	0.1 µM		
O=C(NC(C(=O)O)C(O)c1ccc(Cl)c(Cl)c1)c1ccc(Cl)cc1NS(=O)(=O)c1cccc2nsnc12 (mixture of isomers) [Example 19, 2-[2-(Benzo[1,2,5]thiadiazole-4-sulfonylamino)-4-chloro-benzoylamino]-3-(3,4-dichloro-phenyl)-3-hydroxy-propionic acid]	0.251 µM	0.2 µM		
